Measured values from patent US9572890B2, “Oral formulations of mitochondrially-targeted antioxidants and their preparation and use” (MITOTECH SA, priority 2011, dated 2017).

Test system: full-thickness dermal wounds of db/db mice
Assay: Wound healing in db/db diabetic mice
Format: in vivo
Details: SkQ1 in 20% glycerol, 250 nmol/kg per day, 10 to 12 weeks; 7 days after wounding
Excerpt: Wound healing was studied in two series using 6 months old C57BLKS-Leprdb/J mice (db/db) homozygous and heterozygous C57BLKS-Leprdb/J mice (db/+) mice. These mice are used as type II diabetes model with impaired wound healing (Michaels, et al. (2007) Wound Repair and Regeneration, 15:665-670).
The mice were daily administered 250 nmol/kg body weight per day with the pharmaceutical form of SkQ1 in 20% glycerol as described in Example 8) during period of time from 10 weeks to 12 weeks. Control groups of db/db and db/+ mice were not treated with SkQ1. Full-thickness dermal wounds were made under anesthesia of ketamine (80 mg/kg). Animals were kept in plastic cages under standard temperature, light, and feeding regimes. 7 days after wounding, animals were sacrificed by decapitation. The wounds were excised, fixed in 10% formalin in standard PBS buffer, histologically processed, and embedded in paraffin. Histological sections of central part of the wounds were cut and stained with hematoxylin and eosin. The sections were immunohistochemically stained for markers of endothelial cells (CD31), macrophages (f4/80), and myofibroblasts (smooth muscle α-actin). ImageJ software (National Institutes of Health (NIH) http:/rsb.info.nih.gov/ij/) was used to calculate total amount of cells, number of neutrophils, macrophages and vessel density (vessel area/granulation tissue area*100) on the microphotographs of wound sections. For each animal 100 mm^2 of section area was analyzed. Wound epithelization rate was assessed in % as ratio of epithelized wound area to total wound area on tissue section*100. For statistical analysis nonparametric Mann-Whitney U-test was used. Data are shown as means±S.E.M.

In the case of `CC1=C(C)C(=O)C(CCCCCCCCCC[P+](c2ccccc2)(c2ccccc2)c2ccccc2)=CC1=O` [SkQ1], the “neutrophil infiltration of wounds” value is reported as “decreasing”, the “rate of epithelization of wounds” value is reported as “increasing” and the “vascularization of wounds (vessel density)” value is reported as “increasing”.
